Tests used:
[1] = test system: Th1- and Th2-related chemokines; settings: upon stimulation; Kuo et al. 2019; cited from earlier work
[2] = test system: IL-8 levels and neutrophil accumulation and activation; settings: refractory asthma patients; Simpson et al. 2008; cited from earlier work
[3] = test system: liver enzymes AST and ALT; assay: Liver transaminases AST/ALT after rAAV-Luc, tetracycline pretreatment (Example 2); type: in vivo, piglets; settings: 25 mg/kg/day tetracycline i.v. 4 hours prior to 2×10^12 particles rAAV-Luc
Procedure: (§1) The effect of antibiotic pretreatment on the rAAV particle-induced toxicity e.g., inflammatory response and liver enzyme levels (e.g., toxicity) is examined by measuring levels of endogenous cytokines and liver enzymes AST and ALT in animals injected with rAAV8-Luc particles operably encoding luciferase nucleic acid.
(§2) Female piglets (n=5) are injected intravenously with either PBS alone (antibiotic control) or 25 mg/kg/day tetracycline in PBS 4 hours prior to intravenous administration of PBS alone (viral control) or 2×10^12 particles of rAAV-Luc vector. Small amounts of blood are collected aseptically obtained through the jugular vein at 30 minutes, 60 minutes, 90 minutes, 120 minutes, 1 day, 3 days, 10 days, 21 days, 28 days, 42 days, 60 days post-rAAV-Luc treatment, and serum is isolated. The serum is then analyzed for an inflammatory cytokine profile using the BD™ Cytometric Bead Array Mouse Inflammation Kit (BD™ CBA Mouse Inflammation Kit, BD Biosciences), specifically measuring levels of IL-2, IL-6, IL-7, IL-10, MCP-I, IFNγ, IP-10 and MIG. Liver transaminases e.g., AST and ALT are also measured at the above mentioned timepoints.

[4] = test system: IL-2, IL-6, IL-7, IL-10, MCP-I, IFNγ, IP-10 and MIG; assay: Serum inflammatory cytokine profile after rAAV-Luc, tetracycline pretreatment (Example 2); type: in vivo, piglets
Procedure: as §1, §2

[5] = test system: liver transaminases AST and ALT; assay: Liver transaminases AST/ALT after rAAV-Luc, tapering prednisone and tetracycline (Example 3); type: in vivo, piglets; settings: tetracycline 5-50 mg/kg/day, alone or with tapering prednisone from 25 mg/kg
Procedure: The effect of antibiotic treatment on rAAV particle-induced toxicity is examined by measuring levels of endogenous cytokines and liver transaminases e.g., AST and ALT in animals injected with rAAV-Luc particles operably encoding luciferase nucleic acid.
Female piglets (n=5) are pretreated with 25 mg/kg/day prednisolone 24 hours prior to rAAV8-luc (2×10^12 particles of rAAV-Luc particles) administration and then continued for 4 weeks. Then each week the prednisone is tapered by 5 mg/kg until no prednisone and continued for 15 weeks post AAV administration (2×10^12 particles per piglet). Tetracycline is then administered at 15 mg/kg/day for 16-24 weeks. Small amounts of blood are collected aseptically obtained through the jugular vein at 2 hrs, 4 hrs, 1 day, 3 days, 10 days, 21 days, 4 weeks, 8 weeks, 15 weeks, 24 weeks post-rAAV-Luc treatment, post-rAAV-Luc treatment, and serum is isolated.

Structure (SMILES): CC[C@H]1OC(=O)[C@H](C)[C@@H](O[C@H]2C[C@@](C)(OC)[C@@H](O)[C@H](C)O2)[C@H](C)[C@@H](O[C@@H]2O[C@H](C)C[C@H](N(C)C)[C@H]2O)[C@](C)(O)C[C@@H](C)CN(C)[C@H](C)[C@@H](O)[C@]1(C)O [Azithromycin]
- effect on Th1- and Th2-related chemokines [1]: suppress Th1- and Th2-related chemokines

Structure (SMILES): CC[C@H]1OC(=O)[C@H](C)[C@@H](O[C@H]2C[C@@](C)(OC)[C@@H](O)[C@H](C)O2)[C@H](C)[C@@H](O[C@@H]2O[C@H](C)C[C@H](N(C)C)[C@H]2O)[C@](C)(OC)C[C@@H](C)C(=O)[C@H](C)[C@@H](O)[C@]1(C)O [clarithromycin, Clarithromycin]
- effect on IL-8 levels and neutrophil accumulation and activation [2]: modulate IL-8 levels and Neutophil accumulation and activation

Structure (SMILES): CN(C)[C@@H]1C(O)=C(C(N)=O)C(=O)[C@@]2(O)C(O)=C3C(=O)c4c(O)cccc4[C@@](C)(O)[C@H]3C[C@@H]12 [tetracycline, Tetracycline]
- AST/ALT ratio with time [3]: less than 1
- inflammatory response (cytokine levels) resulting from rAAV-Luc vs antibiotic control ([4]; 25 mg/kg/day tetracycline i.v. 4 hours prior to 2×10^12 particles rAAV-Luc i.v.): significantly reduce
- inflammatory response, tetracycline followed by PBS alone ([4]; 25 mg/kg/day tetracycline i.v., no vector): no inflammatory response
- AST/ALT levels vs control piglets [5]: decreased significantly
